Source: article PMC10892041, “Vanadium Complexes with Thioanilide Derivatives of Amino Acids: Inhibition of Human Phosphatases and Specificity in Various Cell Models of Metabolic Disturbances” (Pharmaceuticals, 2024)

Assays:
hepatocytes HepG2 [1] = assay: Inhibition of hepatic gluconeogenesis (glucose synthesis); settings: known inhibitors of gluconeogenesis; concentration not given
PTP1B = biological target: T1, PTP1B (Homo sapiens, UniProt P18031); assay: Inhibition of human recombinant tyrosine phosphatase PTP1B (DiFMUP fluorescence); assay type: biochemical; settings: for Inhibition of PTP1B, percentage of inhibition of the control: 1 µM, control solvent only, SD did not exceed 6%
T1 construct: purchased Sigma-Aldrich
T1 sequence (P18031 1-435): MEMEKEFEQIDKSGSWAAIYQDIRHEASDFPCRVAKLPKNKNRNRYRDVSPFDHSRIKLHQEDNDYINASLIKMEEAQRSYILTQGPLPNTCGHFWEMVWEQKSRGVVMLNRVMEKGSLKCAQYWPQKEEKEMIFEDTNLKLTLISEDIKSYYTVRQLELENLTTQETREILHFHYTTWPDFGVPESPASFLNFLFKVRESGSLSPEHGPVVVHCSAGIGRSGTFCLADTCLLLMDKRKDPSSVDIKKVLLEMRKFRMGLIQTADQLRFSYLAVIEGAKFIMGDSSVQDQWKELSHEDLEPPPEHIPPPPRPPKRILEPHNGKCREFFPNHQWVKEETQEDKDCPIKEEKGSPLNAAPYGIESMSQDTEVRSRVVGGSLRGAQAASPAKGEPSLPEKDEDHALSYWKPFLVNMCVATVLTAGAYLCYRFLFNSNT
Protocol: (§1) To determine the ability of the tested compounds for inhibition tyrosine phosphatases, human recombinant proteins were used (Sigma-Aldrich). The reactions were performed in black opaque 384-well microplates (PerkinElmer, Waltham, MA, USA). An equal volume of phosphatase solution in a reaction buffer (25 mM of 3-(N-morpholino)propanesulfonic acid (MOPS), 50 mM NaCl, 1 mM dithiothreitol (DTT), and 0.05% Tween-20 (pH 7.0)) was added to the solution of the tested compound on microplate. These solutions were dispensed using an automated injector. The following final concentrations of the tested phosphatases were used: PTP1B 50 ng/mL, SHP1 400 ng/mL, SHP2 50 ng/mL, LAR 5 ng/mL, and PTPRA 100 ng/mL. After 10 min, a solution of phosphate 6,8-difluoro-4-methyl (DiFMUP; Thermo Fisher Scientific) was added until its final concentration was 0.1 mM. Samples were incubated for 20 miN at 23 °C, and then the measurements of fluorescence intensity (excitation 355 and emission […]) were performed on a multifunctional plate reader POLARstar Omega (BMG Labtech, Ortenberg, Germany). Assays were performed in triplicate. For the screening assays, the final concentration of the tested compounds was 1 µM. The results were expressed as percent inhibition of untreated control (enzyme with vehicle only) for the screening tests. […] IC50 were calculated using GraphPad Prism version 6.0 software (GraphPad Software, Boston, MA, USA).

LAR = biological target: T2, LAR (Homo sapiens, UniProt P10586); assay: Inhibition of human recombinant tyrosine phosphatase LAR (DiFMUP fluorescence); assay type: biochemical; settings: for Inhibition of LAR, percentage of inhibition of the control: 1 µM, control solvent only, SD did not exceed 6%
T2 sequence (P10586 1352-1607 limits assumed): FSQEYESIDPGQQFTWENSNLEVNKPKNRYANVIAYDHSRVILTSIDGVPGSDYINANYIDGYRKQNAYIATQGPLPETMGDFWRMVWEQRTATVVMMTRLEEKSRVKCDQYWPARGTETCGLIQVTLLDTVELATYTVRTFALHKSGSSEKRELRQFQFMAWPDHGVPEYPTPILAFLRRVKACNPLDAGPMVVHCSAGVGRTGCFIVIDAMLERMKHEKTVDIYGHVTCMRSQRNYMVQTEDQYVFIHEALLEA
Protocol: as §1

SHP1 = biological target: T3, SHP1 (Homo sapiens, UniProt P29350); assay: Inhibition of human recombinant tyrosine phosphatase SHP1 (DiFMUP fluorescence); assay type: biochemical; settings: for Inhibition of SHP1, percentage of inhibition of the control: 1 µM, control solvent only, SD did not exceed 6%
T3 construct: purchased Sigma-Aldrich
Protocol: as §1

SHP2 = biological target: T4, SHP2 (Homo sapiens, UniProt Q06124); assay: Inhibition of human recombinant tyrosine phosphatase SHP2 (DiFMUP fluorescence); assay type: biochemical; settings: for Inhibition of SHP2, percentage of inhibition of the control: 1 µM, control solvent only, SD did not exceed 6%
T4 construct: purchased Sigma-Aldrich
T4 sequence (Q06124 1-593): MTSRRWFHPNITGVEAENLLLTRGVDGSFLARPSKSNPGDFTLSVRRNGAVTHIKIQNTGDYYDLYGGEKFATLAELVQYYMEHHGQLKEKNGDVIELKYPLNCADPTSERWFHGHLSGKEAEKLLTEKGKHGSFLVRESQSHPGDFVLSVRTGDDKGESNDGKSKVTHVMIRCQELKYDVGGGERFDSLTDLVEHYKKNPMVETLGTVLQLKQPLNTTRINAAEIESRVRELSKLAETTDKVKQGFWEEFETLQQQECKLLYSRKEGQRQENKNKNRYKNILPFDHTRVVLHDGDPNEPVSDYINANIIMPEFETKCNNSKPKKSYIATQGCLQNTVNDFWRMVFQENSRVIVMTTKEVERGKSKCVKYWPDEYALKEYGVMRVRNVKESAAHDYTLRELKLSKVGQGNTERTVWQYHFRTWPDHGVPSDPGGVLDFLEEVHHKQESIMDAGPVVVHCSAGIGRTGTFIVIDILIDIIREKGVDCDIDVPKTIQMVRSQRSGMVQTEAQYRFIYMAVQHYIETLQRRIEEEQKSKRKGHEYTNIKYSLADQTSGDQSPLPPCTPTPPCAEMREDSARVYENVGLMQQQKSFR
Protocol: as §1

hepatocytes HepG2 [2] = assay: Transport of [14C]-deoxy-D-glucose into insulin-resistant hepatocytes (TNF or oleic acid); assay type: cell-based, human; settings: 10 µM; p ≤ 0.05
Protocol: After 24 h incubation, the tested complexes were added. After 2 h incubation at 37 °C in 5% CO2, the medium was changed to low-glucose medium (1000 mg/L), and the tested complexes were added again, with further incubation for 4 h being conducted.
For cells proceeded as above, 2-deoxy-D-[U-14C]-glucose (250–350 mCi/mmol, NEC720A, PerkinElmer) solution in KRB with a total activity of 0.03 mCi was added to each well. […] Non-specific radioactivity was subtracted from each result (cpm). Two independent experiments with triplicates were conducted.
Next, the compounds in fresh medium were added, further incubation was carried out for 24 h, and the scintillation proximity assay for the uptake of radiolabeled 2-deoxy-D-[U-14C]-glucose was conducted as described in the section above.

myocytes C2C12 = system: myocytes C2C12; parameters: method as in doi:10.1016/j.poly.2020.114589; settings: 50 µM; previously published by the authors; cited from earlier work
CDC25A = biological target: T5, CDC25A (Homo sapiens, UniProt P30304); assay: Inhibition of human recombinant non-tyrosine phosphatase CDC25A (3-O-methylfluorescein phosphate); assay type: biochemical
T5 construct: purchased Sigma-Aldrich
T5 sequence (P30304 1-524): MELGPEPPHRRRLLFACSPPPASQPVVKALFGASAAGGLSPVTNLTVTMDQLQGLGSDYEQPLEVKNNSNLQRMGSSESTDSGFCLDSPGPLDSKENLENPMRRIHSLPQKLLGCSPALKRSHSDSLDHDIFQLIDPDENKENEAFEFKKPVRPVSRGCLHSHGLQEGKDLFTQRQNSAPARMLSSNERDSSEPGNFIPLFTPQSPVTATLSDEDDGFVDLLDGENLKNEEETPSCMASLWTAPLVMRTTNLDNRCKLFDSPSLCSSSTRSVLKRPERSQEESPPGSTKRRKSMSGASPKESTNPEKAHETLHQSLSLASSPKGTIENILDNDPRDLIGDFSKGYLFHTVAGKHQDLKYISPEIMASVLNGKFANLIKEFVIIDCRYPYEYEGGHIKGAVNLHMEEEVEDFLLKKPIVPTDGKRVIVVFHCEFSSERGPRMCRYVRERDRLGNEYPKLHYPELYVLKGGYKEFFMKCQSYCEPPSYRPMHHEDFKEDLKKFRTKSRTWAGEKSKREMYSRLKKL
Protocol: (§2) For the inhibition assay of non-tyrosine phosphatases, human recombinant proteins were used (Sigma-Aldrich). The reactions were performed in black opaque 384-well microplates (PerkinElmer). To the solution of the tested complexes, an equal volume of a test solution of phosphatase was added. CDC25A were diluted in reaction buffer to the final concentration of 400 ng/mL as for tyrosine phosphatases (described in the section above), and PPA2 (final 0.5 U/mL) was diluted in 50 mM Tris-HCl, 0.05% Tween-20, and 125 µg/mL protease-free bovine serum albumin (pH 7.0). These solutions were dispensed using an automated injector. After 10 min, a solution of phosphate 6,8-difluoro-4-methyl (DiFMUP; Thermo Fisher Scientific) was added for the PPA2 sample until the final concentration 0.1 mM. For CDC25A samples, 3-O-methylfluorescein phosphate for the final concentration of 0.2 mM was added. Samples were incubated for 180 min at 23 °C, and then the measurements of fluorescence intensity (excitation 355 and emission 560 nm) were performed on a multifunctional plate reader POLARstar Omega (BMG Labtech). Assays were performed in triplicate. The results were expressed as percent of inhibition of untreated control (enzyme with vehicle solvent only).

PP2A = PP2A (Homo sapiens, UniProt P67775); assay: Inhibition of human recombinant non-tyrosine phosphatase PP2A (DiFMUP); assay type: biochemical
Protocol: as §2

hepatocytes HepG2 [3] = settings: 50 µM
Protocol: Experiments on the inhibition of hepatic gluconeogenesis in HepG2 hepatocytes by the vanadium complexes were carried out based on a previous description with some modifications [143]. Hepatocytes HepG2 in culture medium (as indicated above) were seeded on a half-area 96 microplate at the amount of 50,000 per well. After 16–24 h, cells were washed with PBS three times and one time with experimental medium (DMEM without glucose with 0.1% BSA, 2 µM L-glutamine, 15 mM HEPES, 1 mM sodium pyruvate, 10 mM calcium lactate, 100 IU/mL penicillin, and 100 mg/mL streptomycin). Cells were incubated in this medium for 3 h at 37 °C in 5% CO2, and the next medium was changed to the experimental medium with additional gluconeogenesis inductors: 10 µM dexamethasone, 100 µM 8-bromoadenosine 3′,5′-cyclic monophosphate sodium salt (8-Br-cAMP), and 500 µM 3-isobutyl-1-methylxanthine (IBMX). After adding the test compounds, the cells were incubated for 3 h at 37 °C in a 5% CO2 microplate, and then the supernatant was collected for glucose assay (as described in Section 4.2.6). Glucose synthesis was calculated as glucose concentration differences between experimental medium without cells and medium with cells after incubation with the tested compound. The final results were expressed as the percent of inhibition of glucose synthesis by cells incubated with solvent only.

T3 sequence (P29350 whole entry): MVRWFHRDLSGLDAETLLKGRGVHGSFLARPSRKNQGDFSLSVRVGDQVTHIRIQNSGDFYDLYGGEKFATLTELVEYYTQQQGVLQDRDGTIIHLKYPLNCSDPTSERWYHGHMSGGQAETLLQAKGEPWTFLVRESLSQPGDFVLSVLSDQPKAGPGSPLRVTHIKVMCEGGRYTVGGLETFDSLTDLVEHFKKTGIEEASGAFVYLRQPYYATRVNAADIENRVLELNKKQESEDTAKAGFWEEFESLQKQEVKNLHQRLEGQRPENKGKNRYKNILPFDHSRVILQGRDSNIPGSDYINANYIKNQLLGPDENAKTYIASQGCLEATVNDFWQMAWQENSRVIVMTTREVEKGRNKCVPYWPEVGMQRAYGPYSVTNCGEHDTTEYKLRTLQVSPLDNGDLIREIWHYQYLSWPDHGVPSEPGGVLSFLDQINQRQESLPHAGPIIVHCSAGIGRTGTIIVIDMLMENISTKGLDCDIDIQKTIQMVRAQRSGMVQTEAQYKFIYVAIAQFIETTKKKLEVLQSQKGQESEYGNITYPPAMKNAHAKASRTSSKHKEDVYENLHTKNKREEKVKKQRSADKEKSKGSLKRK
PP2A, sequence (P67775 whole entry): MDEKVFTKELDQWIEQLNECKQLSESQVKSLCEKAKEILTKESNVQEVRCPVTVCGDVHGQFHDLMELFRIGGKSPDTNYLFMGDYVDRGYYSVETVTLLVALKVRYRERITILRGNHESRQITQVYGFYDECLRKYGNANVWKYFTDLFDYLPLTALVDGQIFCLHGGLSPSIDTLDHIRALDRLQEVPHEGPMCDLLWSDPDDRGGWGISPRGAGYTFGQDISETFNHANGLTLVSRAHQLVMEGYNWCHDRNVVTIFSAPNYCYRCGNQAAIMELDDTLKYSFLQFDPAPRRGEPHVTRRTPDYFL

Inhibition of PTP1B, percentage of inhibition of the control (PTP1B) [%] | Inhibition of LAR, percentage of inhibition of the control (LAR) [%] | Inhibition of SHP1, percentage of inhibition of the control (SHP1) [%] | Inhibition of SHP2, percentage of inhibition of the control (SHP2) [%] | Log IC50 ± SD PTP1B (PTP1B; logarithm of IC50) | IC50 (PTP1B; read-out: IC50 PTP1B) [nM] | IC50 (LAR) [nM] | IC50 (SHP1) [nM] | Log IC50 ± SD SHP1 (SHP1; logarithm of IC50) | IC50 (SHP2) [nM] | Inhibition of CDC25A, percentage inhibition of control ± SD (CDC25A; 1 µM) [%] | Inhibition of CDC25A, percentage inhibition of control ± SD (CDC25A; 10 µM) [%] | Inhibition of PP2A, percentage inhibition of control ± SD (PP2A; 1 µM) [%] | Inhibition of PP2A, percentage inhibition of control ± SD (PP2A; 10 µM) [%] | Inhibition of glucose synthesis (gluconeogenesis) in hepatocytes (hepatocytes HepG2 [3]) [%] | Compound | Inhibition of glucose synthesis by hepatocytes, experimental control compounds (hepatocytes HepG2 [1]) | Reversal of decreased [14C]-deoxy-D-glucose transport, insulin resistance induced by oleic acid (hepatocytes HepG2 [2]) | Transport of [14C]-deoxy-D-glucose into C2C12 myocytes, % of the control (myocytes C2C12) | Reversal of decreased [14C]-deoxy-D-glucose transport, insulin resistance induced by TNF (hepatocytes HepG2 [2])
 |  |  |  |  |  |  |  |  |  |  |  |  |  |  | NC(=O)c1ncn([C@@H]2O[C@H](CO)[C@@H](O)[C@H]2O)c1N [AICAR, 5-aminoimidazole-4-carboxamide riboside] | showed inhibition of glucose synthesis |  |  | 
42 | 39 | 70 | 74 |  |  |  |  |  |  |  |  |  |  |  | O=C(NN=Cc1cc(Br)ccc1[O][V]1[O]C(c2cc3ccccc3cc2O)=NN=Cc2cc(Br)ccc2[O]1)c1cc2ccccc2cc1O [VC067, [V(L12)(HL12)]] |  | reversed the decrease | 199 ± 3 % of control | 
40 | 33 | 70 | 74 | −5.69 ± 0.02 | 2030 | 619 | 517 | −6.29 ± 0.02 | 235 | 54 ± 3 | 62 ± 2 | 26 ± 12 | 55 ± 15 | 79 ± 18 | O=C(NN=Cc1cc(Br)ccc1[O-])c1ccc([N+](=O)[O-])cc1.O=[N+]([O-])c1ccc(C([O-])=NN=Cc2cc(Br)ccc2[O-])cc1.[V+3] [VC068, [V(L13)(HL13)]] |  |  | 218 ± 10 % of control | reversed the decrease
